Converted amounts (≈) assume the structure as drawn. The source made the active and inactive calls. No cut-off for these calls is given here.
Columns and labels:
[1] = system: Staphylococcus aureus; assay: Antibacterial activity against Staphylococcus aureus ATCC25923 assessed as inhibition of bacterial growth incubated for 24 hrs by broth microdilution method; format: functional
[2] = system: Staphylococcus aureus; assay: Bactericidal activity against Staphylococcus aureus ATCC25923 assessed as inhibition of bacterial growth incubated for 24 hrs by resazurin dye based analysis; format: functional
[3] = system: Staphylococcus aureus; assay: Antibacterial activity against methicillin resistant Staphylococcus aureus ATCC33591 assessed as inhibition of bacterial growth incubated for 24 hrs by broth microdilution method; format: functional
[4] = system: Staphylococcus aureus; assay: Drug resistance, ratio of MIC for methicillin-resistant Staphylococcus aureus ATCC33591 after 19 passages to MIC for methicillin-resistant Staphylococcus aureus ATCC33591 after initial exposure; format: functional
[5] = system: Staphylococcus aureus; assay: Bactericidal activity against methicillin resistant Staphylococcus aureus ATCC33591 assessed as inhibition of bacterial growth incubated for 24 hrs by resazurin dye based analysis; format: functional
[6] = system: Staphylococcus aureus; assay: Drug resistance, ratio of MIC for methicillin-resistant Staphylococcus aureus ATCC33591 after 16 passages to MIC for methicillin-resistant Staphylococcus aureus ATCC33591 after initial exposure; format: functional
[7] = system: Ralstonia solanacearum; assay: Antibacterial activity against Ralstonia solanacearum assessed as inhibition of bacterial growth incubated for 24 hrs by broth microdilution method; format: functional
[8] = system: Enterococcus faecium; assay: Antibacterial activity against vancomycin-resistant Enterococcus faecium ATCC 700221 assessed as inhibition of bacterial growth incubated for 24 hrs by broth microdilution method; format: functional
[9] = system: Pseudomonas syringae pv. actinidiae; assay: (§1) Antibacterial activity against Pseudomonas syringae pv. actinidiae assessed as inhibition of bacterial growth incubated for 24 hrs by broth microdilution method; format: functional
[10] = system: Escherichia coli; assay: Antibacterial activity against Escherichia coli ATCC25922 assessed as inhibition of bacterial growth incubated for 24 hrs by broth microdilution method; format: functional
[11] = system: Staphylococcus aureus; assay: Antibacterial activity against methicillin resistant Staphylococcus aureus ATCC33591 infected in mouse model of abdominal infection assessed as reduction in mean bacterial load in blood at 2 mg/kg, ip treated for 24 hrs starting from 2 hrs post infection; format: functional, organism-based
[12] = as §1; format: functional
[13] = system: Staphylococcus aureus; assay: Antibacterial activity against methicillin resistant Staphylococcus aureus ATCC33591 assessed as post antibiotic effect at 1 ug/ml measured after 2 hrs; format: functional; conditions: dose 1 µg/ml
[14] = system: Staphylococcus aureus; assay: Antibacterial activity against methicillin resistant Staphylococcus aureus ATCC33591 assessed as post antibiotic effect at 2 ug/ml measured after 2 hrs; format: functional; conditions: dose 2 µg/ml
[15] = system: Staphylococcus aureus; assay: Ratio of MBC to MIC for Staphylococcus aureus ATCC25923; format: functional
[16] = system: Staphylococcus aureus; assay: Antibacterial activity against methicillin resistant Staphylococcus aureus ATCC33591 assessed as post antibiotic effect at 16 ug/ml measured after 2 hrs; format: functional; conditions: dose 16 µg/ml
[17] = system: Staphylococcus aureus; assay: Antibacterial activity against methicillin resistant Staphylococcus aureus ATCC33591 infected in mouse model of abdominal infection assessed as reduction in mean bacterial load in blood at 10 mg/kg, ip treated for 24 hrs starting from 2 hrs post infection relative to control; format: functional; set-up: scale not given: the % may be the effect or the level left
[18] = system: Staphylococcus aureus; assay: Antibacterial activity against methicillin resistant Staphylococcus aureus ATCC33591 assessed as reduction in viable bacterial count at 2 times MIC measured within 24 hrs by time kill assay relative to control; format: functional
[19] = system: Staphylococcus aureus; assay: Antibacterial activity against methicillin resistant Staphylococcus aureus ATCC33591 assessed as eradication of viable bacteria at >=4 times MIC measured within 24 hrs by time kill assay relative to control; format: functional
[20] = system: Staphylococcus aureus; assay: Antibacterial activity against methicillin resistant Staphylococcus aureus ATCC33591 assessed as eradication of viable bacteria at >8 times MIC measured after 24 hrs by time kill assay; format: functional, organism-based
[21] = system: Staphylococcus aureus; assay: Drug resistance, ratio of MIC for methicillin-resistant Staphylococcus aureus ATCC33591 after 18 passages to MIC for methicillin-resistant Staphylococcus aureus ATCC33591 after initial exposure; format: functional
[22] = system: Staphylococcus aureus; assay: Antibacterial activity against methicillin resistant Staphylococcus aureus ATCC33591 infected in mouse model of abdominal infection assessed as reduction in mean bacterial load in blood at 5 mg/kg, ip treated for 24 hrs starting from 2 hrs post infection relative to control; format: functional; set-up: scale not given: the % may be the effect or the level left
[23] = system: Staphylococcus aureus; assay: Antibacterial activity against methicillin resistant Staphylococcus aureus ATCC33591 assessed as inhibition of bacterial growth at 1 times MIC incubated for 24 hrs by time kill assay; format: functional, organism-based
[24] = Cytotoxicity against human HepG2 cells assessed as cell viability at 32 to 64 ug/ml measured after 24 hrs by MTT assay; format: toxicity, cell-based; conditions: at 32 to 64 µg/mL, dose 32-64 µg/ml, read-out: Activity
[25] = Cytotoxicity against human L02 cells assessed as cell viability at 32 to 64 ug/ml measured after 24 hrs by MTT assay; format: toxicity, cell-based; conditions: at 32 to 64 µg/mL, dose 32-64 µg/ml, read-out: Activity
[26] = system: Staphylococcus aureus; assay: Antibacterial activity against methicillin resistant Staphylococcus aureus ATCC33591 assessed as post antibiotic effect at 8 ug/ml measured after 2 hrs; format: functional; conditions: dose 8 µg/ml

Row | Compound | MIC [1] [µg/mL] | MIC [3] [µg/mL] | MBC [5] [µg/mL] | MIC [7] [µg/mL] | MIC [8] [µg/mL] | MIC [10] [µg/mL] | MIC [12] [µg/mL] | also measured
1 | CO[C@H]1/C=C/O[C@@]2(C)Oc3c(C)c(O)c4c(O)c(c(/C=N/N5CCN(C)CC5)c(O)c4c3C2=O)NC(=O)/C(C)=C\C=C\[C@H](C)[C@H](O)[C@@H](C)[C@@H](O)[C@@H](C)[C@H](OC(C)=O)[C@@H]1C [RIFAMPIN] | 0.25 (≈ 0.304 µM) | 0.25 (≈ 0.304 µM) | 1 (≈ 1.22 µM) |  |  |  |  | MBC [2]: 2 µg/mL (≈ 2.43 µM); Ratio [4]: 1024; Ratio [6]: 256
2 | GENTAMICIN | 4 | > 128 | > 128 | 16 | > 128 | 4 |  | MBC [2]: 8 µg/mL; MIC [9]: 8 µg/mL
3 | O=C(O)c1cn(C2CC2)c2cc(N3CCNCC3)c(F)cc2c1=O [CIPROFLOXACIN] | 0.5 (≈ 1.51 µM) | 0.5 (≈ 1.51 µM) | 2 (≈ 6.04 µM) | 0.25 (≈ 0.754 µM) | > 128 |  | 0.5 (≈ 1.51 µM) | Activity [11]: Active; PAE [13]: 1.18 h; PAE [14]: 1.79 h
4 | O=C(Nc1ccc(C2NCCc3c2[nH]c2ccccc32)cc1)c1ccc([N+](=O)[O-])cc1 (stereo not given) | 8 (≈ 19.4 µM) | 4 (≈ 9.7 µM) |  | 8 (≈ 19.4 µM) | > 128 | 8 (≈ 19.4 µM) | 32 (≈ 77.6 µM) | 
5 | O=C(Nc1ccc(C2NCCc3c2[nH]c2ccccc32)cc1)c1ccc(Cl)cc1 (stereo not given) | 4 (≈ 9.95 µM) | 8 (≈ 19.9 µM) | 16 (≈ 39.8 µM) | 8 (≈ 19.9 µM) | > 128 | 16 (≈ 39.8 µM) | 128 (≈ 318 µM) | MBC [2]: 32 µg/mL (≈ 79.6 µM); Ratio [15]: 1
6 | O=C(Nc1ccc(C2NCCc3c2[nH]c2ccccc32)cc1)c1cc(C(F)(F)F)cc(C(F)(F)F)c1 (stereo not given) | 16 (≈ 31.8 µM) | 16 (≈ 31.8 µM) |  | 128 (≈ 254 µM) | > 128 | 128 (≈ 254 µM) | 64 (≈ 127 µM) | 
7 | O=C(Nc1ccc(C2NCCc3c2[nH]c2ccccc32)cc1)c1cccc([N+](=O)[O-])c1 (stereo not given) | 8 (≈ 19.4 µM) | 16 (≈ 38.8 µM) |  | 16 (≈ 38.8 µM) | > 128 | 16 (≈ 38.8 µM) | 32 (≈ 77.6 µM) | 
8 | CN1CCc2c([nH]c3ccccc23)C1c1ccc(NC(=O)c2ccccc2)cc1 (stereo not given) | 128 (≈ 336 µM) | 128 (≈ 336 µM) |  | 128 (≈ 336 µM) | > 128 | 128 (≈ 336 µM) | 64 (≈ 168 µM) | 
9 | COC(=O)c1ccc(C(=O)Nc2ccc(C3c4[nH]c5ccccc5c4CCN3C)cc2)cc1 (stereo not given) | 64 (≈ 146 µM) | 32 (≈ 72.8 µM) |  | 128 (≈ 291 µM) | > 128 | 128 (≈ 291 µM) | 32 (≈ 72.8 µM) | 
10 | Cc1cccc(C(=O)Nc2ccc(C3NCCc4c3[nH]c3ccccc43)cc2)c1 (stereo not given) | 32 (≈ 83.9 µM) | 64 (≈ 168 µM) |  | 32 (≈ 83.9 µM) | > 128 | 32 (≈ 83.9 µM) | 32 (≈ 83.9 µM) | 
11 | O=C(Nc1ccc(C2NCCc3c2[nH]c2ccccc32)cc1)c1cccc(Cl)c1 (stereo not given) | 16 (≈ 39.8 µM) | 8 (≈ 19.9 µM) |  | 8 (≈ 19.9 µM) | > 128 | 8 (≈ 19.9 µM) | 64 (≈ 159 µM) | 
12 | CN1CCc2c([nH]c3ccccc23)C1c1ccc(NC(=O)c2cccc(C(F)(F)F)c2)cc1 (stereo not given) | 32 (≈ 71.2 µM) | 32 (≈ 71.2 µM) |  | 16 (≈ 35.6 µM) | > 128 | 32 (≈ 71.2 µM) | 32 (≈ 71.2 µM) | 
13 | O=C(Nc1ccc(C2NCCc3c2[nH]c2ccccc32)cc1)c1cccc(F)c1 (stereo not given) | 16 (≈ 41.5 µM) | 4 (≈ 10.4 µM) |  | 8 (≈ 20.8 µM) | > 128 | 16 (≈ 41.5 µM) | 32 (≈ 83 µM) | 
14 | O=C(Nc1ccc(C2NCCc3c2[nH]c2ccccc32)cc1)c1ccc(C(F)(F)F)cc1 (stereo not given) | 4 (≈ 9.19 µM) | 4 (≈ 9.19 µM) | 4 (≈ 9.19 µM) | 4 (≈ 9.19 µM) | 64 (≈ 147 µM) | 4 (≈ 9.19 µM) | 16 (≈ 36.7 µM) | PAE [16]: 2.63 h; Activity [17]: 26%; MBC [2]: 4 µg/mL (≈ 9.19 µM); Activity [18]: 87.7%; Ratio [15]: 1; Activity [19]: 94.3%; Activity [20]: Active; Ratio [21]: <4; Activity [22]: 9.8%; Activity [23]: Active; viability at 24 h [24]: > 95%; viability at 24 h [25]: > 95%; PAE [26]: 1.78 h
15 | O=C(Nc1ccc(C2NCCc3c2[nH]c2ccccc32)cc1)c1ccccc1 (stereo not given) | 128 (≈ 348 µM) | 128 (≈ 348 µM) |  | 32 (≈ 87.1 µM) | > 128 | 64 (≈ 174 µM) | 32 (≈ 87.1 µM) | 
16 | O=C(Nc1ccc(C2NCCc3c2[nH]c2ccccc32)cc1)c1ccc(Br)cc1 (stereo not given) | 32 (≈ 71.7 µM) | 32 (≈ 71.7 µM) |  | 32 (≈ 71.7 µM) | > 128 | 8 (≈ 17.9 µM) | 16 (≈ 35.8 µM) | 
17 | CN1CCc2c([nH]c3ccccc23)C1c1ccc(NC(=O)c2cccc(F)c2)cc1 (stereo not given) | 32 (≈ 80.1 µM) | 4 (≈ 10 µM) |  | 16 (≈ 40.1 µM) | > 128 | 16 (≈ 40.1 µM) | 16 (≈ 40.1 µM) | 
18 | O=C(Nc1ccc(C2NCCc3c2[nH]c2ccccc32)cc1)c1ccc(F)cc1 (stereo not given) | 4 (≈ 10.4 µM) | 4 (≈ 10.4 µM) | 8 (≈ 20.8 µM) | 4 (≈ 10.4 µM) | > 128 | 16 (≈ 41.5 µM) | 64 (≈ 166 µM) | PAE [16]: 1.28 h; MBC [2]: 8 µg/mL (≈ 20.8 µM); Ratio [15]: 1; Activity [20]: Active; Ratio [21]: <4; Activity [23]: Active; viability at 24 h [24]: > 95%; viability at 24 h [25]: > 95%; PAE [26]: 0.95 h
